Test results as given in PubChem BioAssay AID248 (DTP/NCI, 2004).
Toxic doses and inconclusive results are not listed. No stated cut-off is given here; in the data, active means T/C of 150% or more; inactive means T/C below 125%.

System: L1210 leukemia ip in BDF1 mice, survival T/C
Assay: NCI In Vivo Anticancer Drug Screen. Data for tumor model L1210 Leukemia (intraperitoneal) in B6D2F1 (BDF1) mice
Details: endpoint: mean survival time, higher = longer survival
How it was run: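 Survival endpoint. Drug-treated group vs vehicle group, expressed as T divided by C. Tumor passaged by transplantation.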

[1] = dose: 100.0 mg/kg/injection, schedule: Q01DX001 (ip), vehicle: Klucel (hydroxypropylcellulose) (HPC)
[2] = dose: 100.0 mg/kg/injection, schedule: Q01DX001 (ip), vehicle: carboxymethylcellulose (CMC)
[3] = dose: 200.0 mg/kg/injection, schedule: Q01DX001 (ip), vehicle: Klucel (hydroxypropylcellulose) (HPC)
[4] = dose: 400.0 mg/kg/injection, schedule: Q01DX001 (ip), vehicle: Klucel (hydroxypropylcellulose) (HPC)
[5] = dose: 12.5 mg/kg/injection, schedule: Q01DX009 (ip), vehicle: Klucel (hydroxypropylcellulose) (HPC)
[6] = dose: 25.0 mg/kg/injection, schedule: Q01DX009 (ip), vehicle: Klucel (hydroxypropylcellulose) (HPC)
[7] = dose: 50.0 mg/kg/injection, schedule: Q01DX009 (ip), vehicle: Klucel (hydroxypropylcellulose) (HPC)
[8] = dose: 100.0 mg/kg/injection, schedule: Q01DX009 (ip), vehicle: Klucel (hydroxypropylcellulose) (HPC)
[9] = dose: 200.0 mg/kg/injection, schedule: Q01DX009 (ip), vehicle: Klucel (hydroxypropylcellulose) (HPC)
[10] = dose: 100.0 mg/kg/injection, schedule: Q01DX001 (ip), vehicle: saline
[11] = dose: 200.0 mg/kg/injection, schedule: Q01DX001 (ip), vehicle: saline
[12] = dose: 400.0 mg/kg/injection, schedule: Q01DX001 (ip), vehicle: saline
[13] = dose: 50.0 mg/kg/injection, schedule: Q01DX009 (ip), vehicle: saline
[14] = dose: 100.0 mg/kg/injection, schedule: Q01DX009 (ip), vehicle: saline
[15] = dose: 100.0 mg/kg/injection, schedule: Q04DX003 (ip), vehicle: Klucel (hydroxypropylcellulose) (HPC)
[16] = dose: 200.0 mg/kg/injection, schedule: Q04DX003 (ip), vehicle: Klucel (hydroxypropylcellulose) (HPC)
[17] = dose: 400.0 mg/kg/injection, schedule: Q04DX003 (ip), vehicle: Klucel (hydroxypropylcellulose) (HPC)
[18] = dose: 400.0 mg/kg/injection, schedule: Q01DX001 (ip), vehicle: carboxymethylcellulose (CMC)
[19] = dose: 200.0 mg/kg/injection, schedule: Q01DX009 (ip), vehicle: saline
[20] = dose: 100.0 mg/kg/injection, schedule: Q04DX003 (ip), vehicle: saline
[21] = dose: 200.0 mg/kg/injection, schedule: Q04DX003 (ip), vehicle: saline
[22] = dose: 400.0 mg/kg/injection, schedule: Q04DX003 (ip), vehicle: saline

Measured: T/C

c1csc(Cc2cccs2)c1
inactive: dose: 50.0 mg/kg/injection, schedule: Q01DX009 (ip), vehicle: other 112 % of control | dose: 100.0 mg/kg/injection, schedule: Q01DX009 (ip), vehicle: other 112 % of control | dose: 200.0 mg/kg/injection, schedule: Q01DX009 (ip), vehicle: other 116 % of control

Cc1ccc(NC(=O)N(C)N=O)cc1
inactive: dose: 17.7 mg/kg/injection, schedule: Q01DX009 (ip), vehicle: carboxymethylcellulose (CMC) 118 % of control | dose: 26.6 mg/kg/injection, schedule: Q01DX009 (ip), vehicle: carboxymethylcellulose (CMC) 117 % of control | dose: 40.0 mg/kg/injection, schedule: Q01DX009 (ip), vehicle: carboxymethylcellulose (CMC) 120 % of control | dose: 50.0 mg/kg/injection, schedule: Q01DX001 (ip), vehicle: Klucel (hydroxypropylcellulose) (HPC) 119 % of control | dose: 60.0 mg/kg/injection, schedule: Q01DX009 (ip), vehicle: carboxymethylcellulose (CMC) 88 % of control | dose: 89.0 mg/kg/injection, schedule: Q01DX001 (ip), vehicle: carboxymethylcellulose (CMC) 107 % of control | [1] 111 % of control | [2] 116 % of control | dose: 133.0 mg/kg/injection, schedule: Q01DX001 (ip), vehicle: carboxymethylcellulose (CMC) 122 % of control | [3] 114 % of control | [4] 114 % of control

CCCCCCCCC1SC(=S)NC1CCCCCCCC(=O)OC (stereo unspecified)
inactive: dose: 100.0 mg/kg/injection, schedule: Q04DX002 (ip), vehicle: saline with Tween-80 96 % of control | dose: 200.0 mg/kg/injection, schedule: Q04DX002 (ip), vehicle: saline with Tween-80 100 % of control | dose: 400.0 mg/kg/injection, schedule: Q04DX002 (ip), vehicle: saline with Tween-80 100 % of control

CCCCCCCCCCC(O)CN1CCN(c2ccc(C)cc2)CC1 (stereo unspecified)
inactive: [5] 90 % of control | [6] 90 % of control | [7] 89 % of control | [8] 94 % of control | [9] 101 % of control

C=CCN(CC=C)c1ncnc2[nH]ncc12
inactive: dose: 7.0 mg/kg/injection, schedule: Q01DX015 (ip), vehicle: carboxymethylcellulose (CMC) 91 % of control | dose: 16.0 mg/kg/injection, schedule: Q01DX015 (ip), vehicle: carboxymethylcellulose (CMC) 97 % of control | dose: 32.0 mg/kg/injection, schedule: Q01DX015 (ip), vehicle: carboxymethylcellulose (CMC) 93 % of control | dose: 62.0 mg/kg/injection, schedule: Q01DX015 (ip), vehicle: carboxymethylcellulose (CMC) 106 % of control | [10] 109 % of control | dose: 125.0 mg/kg/injection, schedule: Q01DX015 (ip), vehicle: carboxymethylcellulose (CMC) 89 % of control | [11] 101 % of control | [12] 93 % of control

CC[N+]([O-])(CC)CCNc1ccc(CO)c2sc3ccccc3c(=O)c12
inactive: [13] 92 % of control | [14] 121 % of control

O=C(Cc1ccccc1)c1ccc(O)cc1
inactive: [15] 102 % of control | [16] 102 % of control | [17] 88 % of control

Cc1cc([N+](=O)[O-])c(C)cc1NC(=O)c1ccccc1
inactive: [2] 91 % of control | dose: 200.0 mg/kg/injection, schedule: Q01DX001 (ip), vehicle: carboxymethylcellulose (CMC) 92 % of control | [18] 94 % of control

Cc1ccc(NNP(Cl)(c2ccccc2)(c2ccccc2)c2ccccc2)cc1
inactive: dose: 50.0 mg/kg/injection, schedule: Q01DX001 (ip), vehicle: saline 92 % of control | [10] 97 % of control

Nc1cccc2ccc(S(=O)(=O)O)cc12
inactive: [14] 106 % of control | [19] 97 % of control | dose: 400.0 mg/kg/injection, schedule: Q01DX009 (ip), vehicle: saline 101 % of control

COc1ccc(-n2c(=O)c(N=Nc3ccc(Cl)cc3)c(O)n(-c3ccc(Br)cc3)c2=S)cc1
inactive: [1] 94 % of control | [3] 94 % of control | [4] 92 % of control

N#CC1(N(O)C(=O)Nc2ccccc2)CCCCC1
inactive: [10] 93 % of control | [11] 96 % of control | [12] 91 % of control

N#C/C(=C\c1ccc(Cl)cc1)c1cccc2ccccc12
inactive: [8] 92 % of control | [9] 92 % of control | dose: 400.0 mg/kg/injection, schedule: Q01DX009 (ip), vehicle: Klucel (hydroxypropylcellulose) (HPC) 90 % of control

C/C(=C\Cn1cc([N+](=O)[O-])ccc1=O)CCC(=O)O
inactive: dose: 100.0 mg/kg/injection, schedule: Q01DX009 (ip), vehicle: water 108 % of control | dose: 100.0 mg/kg/injection, schedule: Q04DX003 (ip), vehicle: other 102 % of control | dose: 200.0 mg/kg/injection, schedule: Q01DX009 (ip), vehicle: water 96 % of control | dose: 200.0 mg/kg/injection, schedule: Q04DX003 (ip), vehicle: other 98 % of control | dose: 400.0 mg/kg/injection, schedule: Q01DX009 (ip), vehicle: water 97 % of control | dose: 400.0 mg/kg/injection, schedule: Q04DX003 (ip), vehicle: other 102 % of control

CC(C)(C)NCC1CCCC1
inactive: dose: 20.0 mg/kg/injection, schedule: Q04DX003 (ip), vehicle: saline 109 % of control | dose: 40.0 mg/kg/injection, schedule: Q04DX003 (ip), vehicle: saline 115 % of control | dose: 80.0 mg/kg/injection, schedule: Q04DX003 (ip), vehicle: saline 111 % of control

COc1cc(N(CCl)CCl)ccc1NC(=O)c1ccccc1
inactive: [15] 111 % of control | [16] 105 % of control | [17] 111 % of control

CCOC1=CC(=O)CCC1
inactive: [13] 98 % of control | [14] 94 % of control | [20] 98 % of control | [19] 100 % of control | [21] 110 % of control | [22] 101 % of control

NOCCCCCCON
inactive: [20] 95 % of control | [21] 97 % of control | [22] 95 % of control

COc1ccc(C(=O)CBr)c(OC)c1C
inactive: [5] 94 % of control | dose: 12.5 mg/kg/injection, schedule: Q04DX003 (ip), vehicle: Klucel (hydroxypropylcellulose) (HPC) 100 % of control | [6] 91 % of control | dose: 25.0 mg/kg/injection, schedule: Q04DX003 (ip), vehicle: Klucel (hydroxypropylcellulose) (HPC) 105 % of control | dose: 50.0 mg/kg/injection, schedule: Q04DX003 (ip), vehicle: Klucel (hydroxypropylcellulose) (HPC) 96 % of control

CCOC(=O)C(Cl)CCl (stereo unspecified)
inactive: [7] 97 % of control | [8] 100 % of control | [15] 108 % of control | [9] 104 % of control | [16] 97 % of control

IC1CCCOC1[n+]1ccccc1 (stereo unspecified)
inactive: dose: 12.5 mg/kg/injection, schedule: Q01DX009 (ip), vehicle: saline with Tween-80 102 % of control | dose: 12.5 mg/kg/injection, schedule: Q04DX003 (ip), vehicle: saline with Tween-80 96 % of control | dose: 25.0 mg/kg/injection, schedule: Q01DX009 (ip), vehicle: saline with Tween-80 100 % of control | dose: 25.0 mg/kg/injection, schedule: Q04DX003 (ip), vehicle: saline with Tween-80 104 % of control | dose: 50.0 mg/kg/injection, schedule: Q01DX009 (ip), vehicle: saline with Tween-80 103 % of control | dose: 50.0 mg/kg/injection, schedule: Q04DX003 (ip), vehicle: saline with Tween-80 98 % of control

Cc1cc(C)c(C(=O)c2ccccc2)c(=O)o1
inactive: dose: 10.0 mg/kg/injection, schedule: Q01DX001 (ip), vehicle: carboxymethylcellulose (CMC) 100 % of control | dose: 20.0 mg/kg/injection, schedule: Q01DX001 (ip), vehicle: carboxymethylcellulose (CMC) 100 % of control | dose: 40.0 mg/kg/injection, schedule: Q01DX001 (ip), vehicle: carboxymethylcellulose (CMC) 97 % of control | [18] 103 % of control

CC(=O)Oc1c2ccccc2c(OC(C)=O)c2[nH]c(-c3ccccc3)cc12
inactive: [15] 90 % of control | [16] 93 % of control | [17] 90 % of control
